Reference: patent US20120034613A1, “Apparatus and Method for Testing Relationships Between Gene Expression and Physical Appearance of Skin” (NSE Products, Inc., priority 2010, published 2012)

System: EpidermFT™ Skin Model (EFT-400) full thickness skin cultures
Test: Affymetrix GeneChip HG U133 Plus 2.0 microarray global gene expression, agent-exposed vs untreated skin cultures
Format: cell-based, human
Conditions: 0.5% vs untreated, 24 hr; down

Compound: OCc1ccccc1O[C@@H]1O[C@H](CO)[C@@H](O)[C@H](O)[C@H]1O [Salicin, 2-(Hydroxymethyl)phenyl β-D-glucospyranoside]
- Fold change ABHD12 (228124_at): 3.821
- Fold change ACAD8 (221669_s_at): 3.404
- Fold change ACOX1 (209600_s_at): 3.361
- Fold change ACOX1 (213501_at): 3.854
- Fold change ACOX1 (227962_at): 3.737
- Fold change ADAP2 (222876_s_at): 3.579
- Fold change AGPAT9 (224480_s_at): 3.106
- Fold change AHNAK2 (1558378_a_at): 3.138
- Fold change AKTIP (223894_s_at): 3.08
- Fold change ALDH3A2 (210544_s_at): 3.633
- Fold change ALDH3B2 (204941_s_at): 3.429
- Fold change ALOX15B (206714_at): 3.512
- Fold change ANKFN1 (1553211_at): 3.62
- Fold change ANKRD35 (231118_at): 3.392
- Fold change ANKRD57 (219496_at): 3.699
- Fold change APOBEC3B (206632_s_at): 3.0369
- Fold change AQP3 (39248_at): 3.579
- Fold change ARHGEF5 (204765_at): 3.689
- Fold change ARL4A (205020_s_at): 3.913
- Fold change ARL5A (218150_at): 3.293
- Fold change ARL5A (226617_at): 3.1
- Fold change ASPHD2 (227015_at): 3.321
- Fold change BCL11A (210347_s_at): 3.112
- Fold change BEND5 (219670_at): 3.381
- Fold change BEX2 (224367_at): 3.212
- Fold change BTBD16 (1552566_at): 3.232
- Fold change C1orf106 (219010_at): 3.744
- Fold change C1orf161 (1553333_at): 3.474
- Fold change C2orf54 (220149_at): 3.333
- Fold change C4orf32 (227856_at): 3.328
- Fold change C10orf57 /// C10orf58 (224435_at): 3.829
- Fold change C10orf99 (227735_s_at): 3.719
- Fold change C19orf33 (223631_s_at): 3.241
- Fold change C20orf74 (232500_at): 3.366
- Fold change CA2 (209301_at): 3.433
- Fold change CAMK1D (235626_at): 3.726
- Fold change CARD10 (210026_s_at): 3.475
- Fold change CCNB1 (228729_at): 3.349
- Fold change CD9 (201005_at): 3.444
- Fold change CDH3 (203256_at): 3.506
- Fold change CDKN2B (236313_at): 3.737
- Fold change CDS1 (226187_at): 3.08
- Fold change CGN (223232_s_at): 3.873
- Fold change CHAC2 (235117_at): 3.55
- Fold change CHD7 (218829_s_at): 3.089
- Fold change CLDN4 (201428_at): 3.454
- Fold change CLTB (205172_x_at): 3.663
- Fold change CLTB (211043_s_at): 3.446
- Fold change COBLL1 (215393_s_at): 3.301
- Fold change COL17A1 (204636_at): 3.576
- Fold change CPEB3 (205773_at): 3.876
- Fold change CTA-221G9.4 /// LOC100131004 (225525_at): 3.401
- Fold change CYP2R1 (227109_at): 3.716
- Fold change CYP27C1 (1568868_at): 3.64
- Fold change D4S234E (209569_x_at): 3.313
- Fold change D4S234E (209570_s_at): 3.871
- Fold change DAAM1 (216060_s_at): 3.84
- Fold change DAAM1 (226666_at): 3.519
- Fold change DAPL1 (229290_at): 3.089
- Fold change DGAT2 (224327_s_at): 3.427
- Fold change DGAT2 (226064_s_at): 3.883
- Fold change DHRS1 (213279_at): 3.907
- Fold change DHRS11 (218756_s_at): 3.13
- Fold change DLX3 (231778_at): 3.089
- Fold change DOCK8 (225502_at): 3.608
- Fold change DUOX1 (219597_s_at): 3.516
- Fold change DUOXA1 (1554648_a_at): 3.865
- Fold change EBP (213787_s_at): 3.0355
- Fold change EFNA5 (214036_at): 3.139
- Fold change EGR1 (201693_s_at): 3.681
- Fold change EGR2 (205249_at): 3.497
- Fold change ELOVL6 (204256_at): 3.121
- Fold change ELOVL6 (210868_s_at): 3.441
- Fold change ENC1 (201340_s_at): 3.246
- Fold change EPB41L4A (228256_s_at): 3.298
- Fold change EPHA4 (229374_at): 3.101
- Fold change EPN3 (223895_s_at): 3.929
- Fold change F3 (204363_at): 3.192
- Fold change F11R (222354_at): 3.541
- Fold change FA2H (219429_at): 3.37
- Fold change FABP7 (205029_s_at): 3.263
- Fold change FABP7 (205030_at): 3.804
- Fold change FAM63A (221856_s_at): 3.1
- Fold change FAM72A /// FAM72B /// GCUD2 (225834_at): 3.211
- Fold change FAM83B (1563900_at): 3.497
- Fold change FAM83D (225687_at): 3.895
- Fold change FAM83H (226129_at): 3.739
- Fold change FAM84B (225864_at): 3.566
- Fold change FAM169A (235048_at): 3.759
- Fold change FBXO3 (218432_at): 3.446
- Fold change FCHSD1 (226698_at): 3.141
- Fold change FERMT1 (218796_at): 3.784
- Fold change FGFBP1 (205014_at): 3.406
- Fold change FIGN (239710_at): 3.472
- Fold change FLNB (208614_s_at): 3.765
- Fold change FLVCR2 (219316_s_at): 3.532
- Fold change FLVCR2 (222866_s_at): 3.373
- Fold change FMO5 (205776_at): 3.223
- Fold change FOXE1 (206912_at): 3.121
- Fold change FXYD3 (202489_s_at): 3.827
- Fold change GAB1 (229114_at): 3.301
- Fold change GFOD1 (219821_s_at): 3.679
- Fold change GGT6 (236225_at): 3.426
- Fold change GJB6 (231771_at): 3.289
- Fold change GM2A (35820_at): 3.763
- Fold change GM2A (212737_at): 3.6714
- Fold change GM2A (235678_at): 3.427
- Fold change GPR37 (209631_s_at): 3.265
- Fold change GPR126 (213094_at): 3.256
- Fold change GPT2 (224839_s_at): 3.555
- Fold change GRHL1 (222830_at): 3.044
- Fold change GSTA4 (235405_at): 3.3
- Fold change H19 (224646_x_at): 3.532
